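Assay format: 96-well plates, 48-hour exposure. TGI: total growth inhibition.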
system: CCRF-CEM leukemia; test: NCI tumour cell line growth inhibition, 48 h

SMILES | TGI
COc1cc2c(cc1OCc1ccccc1)CNCC2 | > 100 µM
CCOC(=O)C(N)CSC(=O)NC (stereo unspecified) | 147 µM
COC(=O)C1OC(Oc2cc(O)c3c(=O)cc(-c4ccc(O)cc4)oc3c2)C(O)C(O)C1O (stereo unspecified) | > 100 µM

system: MDA-MB-231 breast; test: NCI tumour cell line growth inhibition, 48 h

SMILES | TGI
O=c1cc(-c2ccccc2)[nH]c2cc3c(cc12)OCO3 | > 100 µM
CCOC(=O)C(N)CSC(=O)NC (stereo unspecified) | 340 µM

system: SNB-75 CNS; test: NCI tumour cell line growth inhibition, 48 h

SMILES | TGI
CCOC(=O)[C@H](CCCNC(=O)OC(C)(C)C)NCc1ccc(OC)c(OC)c1 | > 100 µM
O=c1cc(-c2ccccc2)[nH]c2cc3c(cc12)OCO3 | 43.3 µM
COc1cc2c(cc1OCc1ccccc1)CNCC2 | > 100 µM
CCOC(=O)C(N)CSC(=O)NC (stereo unspecified) | 598 µM
COC(=O)C1OC(Oc2cc(O)c3c(=O)cc(-c4ccc(O)cc4)oc3c2)C(O)C(O)C1O (stereo unspecified) | > 100 µM

system: NCI-H460 lung; test: NCI tumour cell line growth inhibition, 48 h

SMILES | TGI
O=c1cc(-c2ccccc2)[nH]c2cc3c(cc12)OCO3 | > 57.8 µM
COc1cc2c(cc1OCc1ccccc1)CNCC2 | > 100 µM
CCOC(=O)C(N)CSC(=O)NC (stereo unspecified) | 397 µM
COC(=O)C1OC(Oc2cc(O)c3c(=O)cc(-c4ccc(O)cc4)oc3c2)C(O)C(O)C1O (stereo unspecified) | > 100 µM

system: LOX IMVI melanoma; test: NCI tumour cell line growth inhibition, 48 h

SMILES | TGI
CCOC(=O)[C@H](CCCNC(=O)OC(C)(C)C)NCc1ccc(OC)c(OC)c1 | > 100 µM
O=c1cc(-c2ccccc2)[nH]c2cc3c(cc12)OCO3 | > 100 µM
COc1cc2c(cc1OCc1ccccc1)CNCC2 | > 100 µM
CCOC(=O)C(N)CSC(=O)NC (stereo unspecified) | 133 µM
COC(=O)C1OC(Oc2cc(O)c3c(=O)cc(-c4ccc(O)cc4)oc3c2)C(O)C(O)C1O (stereo unspecified) | > 100 µM

system: LXFL 529 NSCLC; test: NCI tumour cell line growth inhibition, 48 h

SMILES | TGI
CCOC(=O)[C@H](CCCNC(=O)OC(C)(C)C)NCc1ccc(OC)c(OC)c1 | > 100 µM
O=c1cc(-c2ccccc2)[nH]c2cc3c(cc12)OCO3 | > 100 µM
COc1cc2c(cc1OCc1ccccc1)CNCC2 | > 100 µM

system: SK-OV-3 ovarian; test: NCI tumour cell line growth inhibition, 48 h

SMILES | TGI
CCOC(=O)[C@H](CCCNC(=O)OC(C)(C)C)NCc1ccc(OC)c(OC)c1 | > 100 µM
O=c1cc(-c2ccccc2)[nH]c2cc3c(cc12)OCO3 | 26 µM
COc1cc2c(cc1OCc1ccccc1)CNCC2 | > 100 µM
CCOC(=O)C(N)CSC(=O)NC (stereo unspecified) | 621 µM
COC(=O)C1OC(Oc2cc(O)c3c(=O)cc(-c4ccc(O)cc4)oc3c2)C(O)C(O)C1O (stereo unspecified) | > 100 µM

system: SNB-78 CNS; test: NCI tumour cell line growth inhibition, 48 h

SMILES | TGI
O=c1cc(-c2ccccc2)[nH]c2cc3c(cc12)OCO3 | > 78.8 µM
COc1cc2c(cc1OCc1ccccc1)CNCC2 | > 100 µM
COC(=O)C1OC(Oc2cc(O)c3c(=O)cc(-c4ccc(O)cc4)oc3c2)C(O)C(O)C1O (stereo unspecified) | > 100 µM

system: DMS 273 small cell lung; test: NCI tumour cell line growth inhibition, 48 h

SMILES | TGI
CCOC(=O)[C@H](CCCNC(=O)OC(C)(C)C)NCc1ccc(OC)c(OC)c1 | > 100 µM
O=c1cc(-c2ccccc2)[nH]c2cc3c(cc12)OCO3 | 84.9 µM
COc1cc2c(cc1OCc1ccccc1)CNCC2 | > 100 µM
CCOC(=O)C(N)CSC(=O)NC (stereo unspecified) | 375 µM
COC(=O)C1OC(Oc2cc(O)c3c(=O)cc(-c4ccc(O)cc4)oc3c2)C(O)C(O)C1O (stereo unspecified) | > 100 µM

system: HS 578T breast; test: NCI tumour cell line growth inhibition, 48 h

SMILES | TGI
O=c1cc(-c2ccccc2)[nH]c2cc3c(cc12)OCO3 | > 100 µM
CCOC(=O)C(N)CSC(=O)NC (stereo unspecified) | 782 µM

system: PC-3 prostate; test: NCI tumour cell line growth inhibition, 48 h

SMILES | TGI
O=c1cc(-c2ccccc2)[nH]c2cc3c(cc12)OCO3 | > 100 µM
CCOC(=O)C(N)CSC(=O)NC (stereo unspecified) | 455 µM

system: EKVX NSCLC; test: NCI tumour cell line growth inhibition, 48 h

SMILES | TGI
CCOC(=O)[C@H](CCCNC(=O)OC(C)(C)C)NCc1ccc(OC)c(OC)c1 | > 100 µM
O=c1cc(-c2ccccc2)[nH]c2cc3c(cc12)OCO3 | > 100 µM
COc1cc2c(cc1OCc1ccccc1)CNCC2 | > 100 µM
CCOC(=O)C(N)CSC(=O)NC (stereo unspecified) | 546 µM
COC(=O)C1OC(Oc2cc(O)c3c(=O)cc(-c4ccc(O)cc4)oc3c2)C(O)C(O)C1O (stereo unspecified) | > 100 µM

system: OVCAR-8 ovarian; test: NCI tumour cell line growth inhibition, 48 h

SMILES | TGI
CCOC(=O)[C@H](CCCNC(=O)OC(C)(C)C)NCc1ccc(OC)c(OC)c1 | > 100 µM
O=c1cc(-c2ccccc2)[nH]c2cc3c(cc12)OCO3 | > 100 µM
COc1cc2c(cc1OCc1ccccc1)CNCC2 | > 100 µM
CCOC(=O)C(N)CSC(=O)NC (stereo unspecified) | 314 µM
COC(=O)C1OC(Oc2cc(O)c3c(=O)cc(-c4ccc(O)cc4)oc3c2)C(O)C(O)C1O (stereo unspecified) | > 100 µM

system: DMS 114 small cell lung; test: NCI tumour cell line growth inhibition, 48 h

SMILES | TGI
CCOC(=O)[C@H](CCCNC(=O)OC(C)(C)C)NCc1ccc(OC)c(OC)c1 | > 100 µM
COc1cc2c(cc1OCc1ccccc1)CNCC2 | > 100 µM
CCOC(=O)C(N)CSC(=O)NC (stereo unspecified) | 147 µM
COC(=O)C1OC(Oc2cc(O)c3c(=O)cc(-c4ccc(O)cc4)oc3c2)C(O)C(O)C1O (stereo unspecified) | > 100 µM

system: M19-MEL melanoma; test: NCI tumour cell line growth inhibition, 48 h

SMILES | TGI
CCOC(=O)[C@H](CCCNC(=O)OC(C)(C)C)NCc1ccc(OC)c(OC)c1 | > 100 µM
O=c1cc(-c2ccccc2)[nH]c2cc3c(cc12)OCO3 | > 100 µM
COc1cc2c(cc1OCc1ccccc1)CNCC2 | > 100 µM
CCOC(=O)C(N)CSC(=O)NC (stereo unspecified) | 157 µM
COC(=O)C1OC(Oc2cc(O)c3c(=O)cc(-c4ccc(O)cc4)oc3c2)C(O)C(O)C1O (stereo unspecified) | > 100 µM

system: IGROV1 ovarian; test: NCI tumour cell line growth inhibition, 48 h

SMILES | TGI
CCOC(=O)[C@H](CCCNC(=O)OC(C)(C)C)NCc1ccc(OC)c(OC)c1 | > 100 µM
O=c1cc(-c2ccccc2)[nH]c2cc3c(cc12)OCO3 | > 100 µM
COc1cc2c(cc1OCc1ccccc1)CNCC2 | > 100 µM
CCOC(=O)C(N)CSC(=O)NC (stereo unspecified) | 481 µM
COC(=O)C1OC(Oc2cc(O)c3c(=O)cc(-c4ccc(O)cc4)oc3c2)C(O)C(O)C1O (stereo unspecified) | > 100 µM

system: RPMI-8226 leukemia; test: NCI tumour cell line growth inhibition, 48 h

SMILES | TGI
O=c1cc(-c2ccccc2)[nH]c2cc3c(cc12)OCO3 | > 80 µM
CCOC(=O)C(N)CSC(=O)NC (stereo unspecified) | 214 µM
COC(=O)C1OC(Oc2cc(O)c3c(=O)cc(-c4ccc(O)cc4)oc3c2)C(O)C(O)C1O (stereo unspecified) | > 100 µM

system: NCI-H226 lung; test: NCI tumour cell line growth inhibition, 48 h

SMILES | TGI
CCOC(=O)[C@H](CCCNC(=O)OC(C)(C)C)NCc1ccc(OC)c(OC)c1 | > 100 µM
O=c1cc(-c2ccccc2)[nH]c2cc3c(cc12)OCO3 | 27.5 µM
COc1cc2c(cc1OCc1ccccc1)CNCC2 | > 100 µM
CCOC(=O)C(N)CSC(=O)NC (stereo unspecified) | 681 µM
COC(=O)C1OC(Oc2cc(O)c3c(=O)cc(-c4ccc(O)cc4)oc3c2)C(O)C(O)C1O (stereo unspecified) | > 100 µM

system: MOLT-4 leukemia; test: NCI tumour cell line growth inhibition, 48 h

SMILES | TGI
CCOC(=O)[C@H](CCCNC(=O)OC(C)(C)C)NCc1ccc(OC)c(OC)c1 | > 100 µM
O=c1cc(-c2ccccc2)[nH]c2cc3c(cc12)OCO3 | > 100 µM
COc1cc2c(cc1OCc1ccccc1)CNCC2 | > 100 µM
CCOC(=O)C(N)CSC(=O)NC (stereo unspecified) | 215 µM
COC(=O)C1OC(Oc2cc(O)c3c(=O)cc(-c4ccc(O)cc4)oc3c2)C(O)C(O)C1O (stereo unspecified) | > 100 µM

Reference: PubChem BioAssay (NCI)
